Reference: the supplement of paper PMC13207355

Tests used:
Conditions in all cases: exposure time: 72 h
E31 [1] = patient-derived glioblastoma stem cells of proneural subtype; assay: surviving fraction (nuclei count normalised to DMSO); higher = more cells surviving (less toxic)
FT3469 [2] = normal neural stem cell line; assay: as above
E21 [3] = patient-derived glioblastoma stem cells of mesenchymal subtype; assay: as above
E57 [4] = patient-derived glioblastoma stem cells of mesenchymal subtype; assay: as above
E13 [5] = patient-derived glioblastoma stem cells of classical subtype; assay: as above
E28 [6] = patient-derived glioblastoma stem cells of classical subtype; assay: as above
E34 [7] = patient-derived glioblastoma stem cells of proneural subtype; assay: as above
E31 [8] = assay: phenotypic distance (Euclidean, principal components) from DMSO controls (arbitrary units); higher = stronger morphological change
FT3469 [9] = assay: as above
E21 [10] = assay: as above
E57 [11] = assay: as above
E13 [12] = assay: as above
E28 [13] = assay: as above
E34 [14] = assay: as above
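For phenotypic distance (Euclidean, principal components) from DMSO controls in this document: cell Painting imaging in 384-well plates, CellProfiler features reduced to at least 20 principal components, Euclidean distance versus same-plate DMSO vehicle wells (0.1% v/v), median over six images per well.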
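For surviving fraction (nuclei count normalised to DMSO) in this document: nuclei counted by high-content imaging of Hoechst-stained cells in laminin-coated 384-well plates, relative to 0.1% DMSO vehicle wells, with staurosporine as cell-death control.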

CCCCC1C(=O)N(c2ccccc2)N(c2ccc(O)cc2)C1=O (stereo unspecified) [Oxyphenbutazone]
Conditions	phenotypic distance	surviving fraction
E13 [5], 4.1 nM	–	1.06
E13 [5], 12.3 nM	–	1.12
E13 [5], 37 nM	–	0.991
E13 [5], 111.1 nM	–	1.1
E13 [5], 333.3 nM	–	1.11
E13 [5], 1000 nM	–	1.04
E13 [5], 3000 nM	–	0.978
E13 [12], 4.1 nM	0.562	–
E13 [12], 12.3 nM	0.782	–
E13 [12], 37 nM	0.706	–
E13 [12], 111.1 nM	0.835	–
E13 [12], 333.3 nM	1.34	–
E13 [12], 1000 nM	0.708	–
E13 [12], 3000 nM	0.404	–
E21 [3], 4.1 nM	–	1.04
E21 [3], 12.3 nM	–	1.09
E21 [3], 37 nM	–	0.947
E21 [3], 111.1 nM	–	1.05
E21 [3], 333.3 nM	–	0.957
E21 [3], 1000 nM	–	1.05
E21 [3], 3000 nM	–	1.1
E21 [10], 4.1 nM	0.965	–
E21 [10], 12.3 nM	0.677	–
E21 [10], 37 nM	0.635	–
E21 [10], 111.1 nM	0.699	–
E21 [10], 333.3 nM	0.588	–
E21 [10], 1000 nM	0.698	–
E21 [10], 3000 nM	0.735	–
E28 [6], 4.1 nM	–	1.06
E28 [6], 12.3 nM	–	1.05
E28 [6], 37 nM	–	1.06
E28 [6], 111.1 nM	–	1.06
E28 [6], 333.3 nM	–	0.96
E28 [6], 1000 nM	–	1.02
E28 [6], 3000 nM	–	1.07
E28 [13], 4.1 nM	0.723	–
E28 [13], 12.3 nM	0.56	–
E28 [13], 37 nM	0.689	–
E28 [13], 111.1 nM	0.5	–
E28 [13], 333.3 nM	0.608	–
E28 [13], 1000 nM	0.532	–
E28 [13], 3000 nM	0.618	–
E31 [1], 4.1 nM	–	0.93
E31 [1], 12.3 nM	–	0.906
E31 [1], 37 nM	–	0.918
E31 [1], 111.1 nM	–	1.01
E31 [1], 333.3 nM	–	0.939
E31 [1], 1000 nM	–	1.07
E31 [1], 3000 nM	–	0.941
E31 [8], 4.1 nM	0.939	–
E31 [8], 12.3 nM	1.97	–
E31 [8], 37 nM	0.848	–
E31 [8], 111.1 nM	0.364	–
E31 [8], 333.3 nM	0.728	–
E31 [8], 1000 nM	0.522	–
E31 [8], 3000 nM	0.632	–
E34 [7], 4.1 nM	–	0.971
E34 [7], 12.3 nM	–	1.07
E34 [7], 37 nM	–	0.978
E34 [7], 111.1 nM	–	1.07
E34 [7], 333.3 nM	–	1.04
E34 [7], 1000 nM	–	1.11
E34 [7], 3000 nM	–	1.01
E34 [14], 4.1 nM	0.618	–
E34 [14], 12.3 nM	0.62	–
E34 [14], 37 nM	0.522	–
E34 [14], 111.1 nM	0.833	–
E34 [14], 333.3 nM	0.434	–
E34 [14], 1000 nM	1.17	–
E34 [14], 3000 nM	0.608	–
E57 [4], 4.1 nM	–	1.04
E57 [4], 12.3 nM	–	1.02
E57 [4], 37 nM	–	0.983
E57 [4], 111.1 nM	–	0.979
E57 [4], 333.3 nM	–	1.06
E57 [4], 1000 nM	–	0.965
E57 [4], 3000 nM	–	0.938
E57 [11], 4.1 nM	0.925	–
E57 [11], 12.3 nM	0.967	–
E57 [11], 37 nM	0.794	–
E57 [11], 111.1 nM	0.629	–
E57 [11], 333.3 nM	0.441	–
E57 [11], 1000 nM	0.546	–
E57 [11], 3000 nM	0.652	–
FT3469 [2], 4.1 nM	–	0.985
FT3469 [2], 12.3 nM	–	0.955
FT3469 [2], 37 nM	–	0.951
FT3469 [2], 111.1 nM	–	1.13
FT3469 [2], 333.3 nM	–	1.03
FT3469 [2], 1000 nM	–	0.989
FT3469 [2], 3000 nM	–	1.08
FT3469 [9], 4.1 nM	0.918	–
FT3469 [9], 12.3 nM	0.982	–
FT3469 [9], 37 nM	0.908	–
FT3469 [9], 111.1 nM	0.496	–
FT3469 [9], 333.3 nM	0.356	–
FT3469 [9], 1000 nM	0.51	–
FT3469 [9], 3000 nM	0.472	–

C=C(C)[C@H]1Cc2c(ccc3c2O[C@@H]2COc4cc(OC)c(OC)cc4[C@@H]2C3=O)O1 [Rotenone]
Conditions	phenotypic distance	surviving fraction
E13 [5], 4.1 nM	–	1.02
E13 [5], 12.3 nM	–	0.894
E13 [5], 37 nM	–	0.83
E13 [5], 111.1 nM	–	0.771
E13 [5], 333.3 nM	–	0.632
E13 [5], 1000 nM	–	0.566
E13 [5], 3000 nM	–	0.212
E13 [12], 4.1 nM	0.548	–
E13 [12], 12.3 nM	0.572	–
E13 [12], 37 nM	1.04	–
E13 [12], 111.1 nM	1.22	–
E13 [12], 333.3 nM	2.49	–
E13 [12], 1000 nM	3.77	–
E13 [12], 3000 nM	6.02	–
E21 [3], 4.1 nM	–	0.993
E21 [3], 12.3 nM	–	0.918
E21 [3], 37 nM	–	0.978
E21 [3], 111.1 nM	–	0.905
E21 [3], 333.3 nM	–	0.822
E21 [3], 1000 nM	–	0.511
E21 [3], 3000 nM	–	0.147
E21 [10], 4.1 nM	0.532	–
E21 [10], 12.3 nM	0.585	–
E21 [10], 37 nM	0.921	–
E21 [10], 111.1 nM	1.37	–
E21 [10], 333.3 nM	2.24	–
E21 [10], 1000 nM	3.52	–
E21 [10], 3000 nM	7.81	–
E28 [6], 4.1 nM	–	1.05
E28 [6], 12.3 nM	–	0.989
E28 [6], 37 nM	–	0.906
E28 [6], 111.1 nM	–	0.904
E28 [6], 333.3 nM	–	0.818
E28 [6], 1000 nM	–	0.648
E28 [6], 3000 nM	–	0.425
E28 [13], 4.1 nM	0.546	–
E28 [13], 12.3 nM	0.394	–
E28 [13], 37 nM	0.642	–
E28 [13], 111.1 nM	0.779	–
E28 [13], 333.3 nM	1.31	–
E28 [13], 1000 nM	2.44	–
E28 [13], 3000 nM	3.1	–
E31 [1], 4.1 nM	–	0.905
E31 [1], 12.3 nM	–	0.93
E31 [1], 37 nM	–	1
E31 [1], 111.1 nM	–	0.862
E31 [1], 333.3 nM	–	0.672
E31 [1], 1000 nM	–	0.385
E31 [1], 3000 nM	–	0.135
E31 [8], 4.1 nM	0.668	–
E31 [8], 12.3 nM	0.711	–
E31 [8], 37 nM	2.14	–
E31 [8], 111.1 nM	1.02	–
E31 [8], 333.3 nM	1.3	–
E31 [8], 1000 nM	2.13	–
E31 [8], 3000 nM	5.49	–
E34 [7], 4.1 nM	–	1.04
E34 [7], 12.3 nM	–	1.04
E34 [7], 37 nM	–	0.855
E34 [7], 111.1 nM	–	0.843
E34 [7], 333.3 nM	–	0.755
E34 [7], 1000 nM	–	0.786
E34 [7], 3000 nM	–	0.473
E34 [14], 4.1 nM	0.805	–
E34 [14], 12.3 nM	1	–
E34 [14], 37 nM	0.736	–
E34 [14], 111.1 nM	0.699	–
E34 [14], 333.3 nM	1.76	–
E34 [14], 1000 nM	1.95	–
E34 [14], 3000 nM	3.52	–
E57 [4], 4.1 nM	–	1.04
E57 [4], 12.3 nM	–	1.05
E57 [4], 37 nM	–	0.983
E57 [4], 111.1 nM	–	0.959
E57 [4], 333.3 nM	–	0.941
E57 [4], 1000 nM	–	0.821
E57 [4], 3000 nM	–	0.188
E57 [11], 4.1 nM	0.304	–
E57 [11], 12.3 nM	0.356	–
E57 [11], 37 nM	0.67	–
E57 [11], 111.1 nM	0.385	–
E57 [11], 333.3 nM	1.23	–
E57 [11], 1000 nM	1.95	–
E57 [11], 3000 nM	6.35	–
FT3469 [2], 4.1 nM	–	1.12
FT3469 [2], 12.3 nM	–	0.838
FT3469 [2], 37 nM	–	0.826
FT3469 [2], 111.1 nM	–	0.877
FT3469 [2], 333.3 nM	–	0.897
FT3469 [2], 1000 nM	–	0.744
FT3469 [2], 3000 nM	–	0.448
FT3469 [9], 4.1 nM	0.458	–
FT3469 [9], 12.3 nM	0.898	–
FT3469 [9], 37 nM	0.644	–
FT3469 [9], 111.1 nM	1.18	–
FT3469 [9], 333.3 nM	1.03	–
FT3469 [9], 1000 nM	2.14	–
FT3469 [9], 3000 nM	3.61	–
